According to patent US9676751B2, “2-amino-3-ester-pyridl orexin receptor antagonists” (MERCK SHARP & DOHME CORP., priority 2013, dated 2017):

Assays:
[1] = target: T1, human orexin-2 receptor (Homo sapiens, UniProt O43614); assay: FLIPR Ca2+ Flux Assay, CHO cells expressing the human orexin-2 receptor; assay type: cell-based; settings: agonist 70 pM Ala-6,12 orexin-A, read-out: hOX2R FLIPR IC50
T1 construct: expressed in transfected cells; host or cells: CHO cells
T1 sequence (O43614 1-444): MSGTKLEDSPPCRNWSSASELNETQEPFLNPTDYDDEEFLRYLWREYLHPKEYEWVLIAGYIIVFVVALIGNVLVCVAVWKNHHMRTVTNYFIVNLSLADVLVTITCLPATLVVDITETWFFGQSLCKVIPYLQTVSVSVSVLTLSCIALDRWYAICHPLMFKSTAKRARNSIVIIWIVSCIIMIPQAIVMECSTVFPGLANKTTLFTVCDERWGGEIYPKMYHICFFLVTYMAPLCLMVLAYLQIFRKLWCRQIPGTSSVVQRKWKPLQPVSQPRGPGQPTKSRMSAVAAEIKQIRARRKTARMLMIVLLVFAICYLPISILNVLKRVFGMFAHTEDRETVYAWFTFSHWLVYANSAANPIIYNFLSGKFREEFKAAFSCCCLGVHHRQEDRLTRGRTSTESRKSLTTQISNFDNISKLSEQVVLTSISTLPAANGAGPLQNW
Protocol: The utility of the compounds in accordance with the present invention as orexin receptor OX1R and/or OX2R antagonists may be readily determined without undue experimentation by methodology well known in the art, including the “FLIPR Ca^2+ Flux Assay” (Okumura et al., Biochem. Biophys. Res. Comm. 280:976-981, 2001). In a typical experiment the OX1 and OX2 receptor antagonistic activity of the compounds of the present invention was determined in accordance with the following experimental method. For intracellular calcium measurements, Chinese hamster ovary (CHO) cells expressing the rat orexin-1 receptor or the human orexin-2 receptor, are grown in Iscove's modified DMEM containing 2 mM L-glutamine, […], 1% hypoxanthine-thymidine supplement, 100 U/ml penicillin, 100 μg/ml streptomycin and 10% heat-inactivated fetal calf serum (FCS). The cells are seeded at 20,000 cells/well into Becton-Dickinson black 384-well clear bottom sterile plates coated with poly-D-lysine. All reagents were from GIBCO-Invitrogen Corp. The seeded plates are incubated overnight at 37° C. and 5% CO2. Ala-6,12 human orexin-A as the agonist is prepared as a 1 mM stock solution in 1% bovine serum albumin (BSA) and diluted in assay buffer (HBSS containing 20 mM HEPES, 0.1% BSA and 2.5 mM probenecid, pH7.4) for use in the assay at a final concentration of 70 pM. Test compounds are prepared as 10 mM stock solution in DMSO, then diluted in 384-well plates, first in DMSO, then assay buffer. On the day of the assay, cells are washed 3 times with 100 μl assay buffer and then incubated for 60 min (37° C., 5% CO2) in 60 μl assay buffer containing 1 μM Fluo-4AM ester, 0.02% pluronic acid, and 1% BSA. The dye loading solution is then aspirated and cells are washed 3 times with 100 μl assay buffer. 30 μl of that same buffer is left in each well. Within the Fluorescent Imaging Plate Reader (FLIPR, Molecular Devices), test compounds are added to the plate in a volume of 25 μl, incubated for 5 min and finally 25 μl of agonist is added. Fluorescence is measured for each well at 1 second intervals for 5 minutes and the height of each fluorescence peak is compared to the height of the fluorescence peak induced by 70 pM Ala-6,12 orexin-A with buffer in place of antagonist. For each antagonist, IC50 value (the concentration of compound needed to inhibit 50% of the agonist response) is determined. Alternatively, compound potency can be assessed by a radioligand binding assay (described in Bergman et. al. Bioorg. Med. Chem. Lett. 2008, 18, 1425-1430) in which the inhibition constant (Ki) is determined in membranes prepared from CHO cells expressing either the OX1 or OX2 receptor. The intrinsic orexin receptor antagonist activity of a compound which may be used in the present invention may be determined by these assays.

[2] = target: T2, hOX1R (Homo sapiens, UniProt O43613); assay: FLIPR Ca2+ Flux Assay, CHO cells expressing the orexin-1 receptor; assay type: cell-based; settings: agonist 70 pM Ala-6,12 orexin-A
T2 construct: expressed in transfected cells; host or cells: CHO cells
T2 sequence (O43613 1-425): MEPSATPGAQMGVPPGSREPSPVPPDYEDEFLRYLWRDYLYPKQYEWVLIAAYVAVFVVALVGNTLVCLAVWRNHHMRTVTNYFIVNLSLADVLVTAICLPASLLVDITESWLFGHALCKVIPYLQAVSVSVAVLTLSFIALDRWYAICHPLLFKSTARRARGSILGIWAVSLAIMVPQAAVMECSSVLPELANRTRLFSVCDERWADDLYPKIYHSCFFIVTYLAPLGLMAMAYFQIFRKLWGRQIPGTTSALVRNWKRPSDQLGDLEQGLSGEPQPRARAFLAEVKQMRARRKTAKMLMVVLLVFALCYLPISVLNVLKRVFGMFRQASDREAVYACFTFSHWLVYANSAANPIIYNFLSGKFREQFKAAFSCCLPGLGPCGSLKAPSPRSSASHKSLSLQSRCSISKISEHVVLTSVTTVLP

IC50 [1] [nM] | IC50 [2] [nM] | Compound
24 | 43 | COC(=O)c1c(C#N)ccnc1N[C@@H]1CC[C@@H](C)N(C(=O)c2ccccc2-n2nccn2)C1 [Example 19, Methyl 4-cyano-2-{[(3R,6R)-6-methyl-1-{[2-(2H-1,2,3-triazol-2-yl)phenyl]carbonyl}-piperidin-3-yl]amino}pyridine-3-carboxylate]
48 | 86 | COC(=O)c1c(C#N)ccnc1N[C@@H]1CC[C@@H](C)N(C(=O)c2ccccc2-c2ncccn2)C1 [Example 20, Methyl 4-cyano-2-({(3R,6R)-6-methyl-1-[(2-pyrimidin-2-ylphenyl)carbonyl]piperidin-3-yl}amino)pyridine-3-carboxylate]
